The values that follow come from ChEMBL document CHEMBL1212903, “Neuroprotective xanthone glycosides from Swertia punicea” (2010).

The test system of experiment [1] is PC-12. Description: Neuroprotective activity in rat PC12 cells assessed as protection against H2O2-induced cell damage at 25 ug/ml after 1 hr by MTT assay relative to control. It is filed as functional. (In general: Formazan colour is commonly taken as a measure of viable cells.)
The test system of experiment [2] is PC-12. In words: Neuroprotective activity in rat PC12 cells assessed as protection against H2O2-induced cell damage at 12.5 ug/ml after 1 hr by MTT assay relative to control. The format is functional.

`O=c1c2cc(O)c(O)cc2oc2c(-c3cc(O)c4oc5cc(O)cc(O)c5c(=O)c4c3O)c(O)c([C@@H]3O[C@H](CO)[C@@H](O)[C@H](O)[C@H]3O)c(O)c12`: the Activity with PC-12 [1] came to 157.8%; in the experiment with PC-12 [2], 95.5%.

As for `CC1=NN(c2ccccc2)C(=O)C1` [EDARAVONE], the Activity is recorded as 86.9% in the experiment with PC-12 [1] and 74.3% with PC-12 [2].

As for `O=c1c2c(oc3cc(O)c(-c4cc(O)c5oc6cc(O)cc(O)c6c(=O)c5c4O)c(O)c13)[C@H](O)CC[C@@H]2O[C@@H]1O[C@H](CO)[C@@H](O)[C@H](O)[C@H]1O` [PUNICEASIDE B], the values for the Activity with PC-12 [1] and with PC-12 [2] were 98.1% and 75.1%, respectively.

Take `O=c1c2c(O)c(-c3cc(O)c4oc5cc(O)cc(O)c5c(=O)c4c3O)c(O)cc2oc2c(O)ccc(O[C@@H]3O[C@H](CO)[C@@H](O)[C@H](O)[C@H]3O)c12` [swertiabisxanthone I]: the values for the Activity with PC-12 [1] and in the experiment on PC-12 [2] were 123% and 89.1%, respectively.
